This note sets out measurements from paper PMC9237828, “Chemically Tuning Resveratrol for the Effective Killing of Gram-Positive Pathogens” (Journal of Natural Products, 2022).

One test relates to C. perfringens CECT376. The test can be described thus: microbe, parasite or virus in culture. The class given is cell-based. The following applies: Clostridium perfringens, CECT376, 24 h, read-out: Minimal Inhibition Concentration (MIC) C. perfringens CECT376.
A further test relates to S.aureus LMG15975. Briefly: microbe, parasite or virus in culture. The class given is cell-based, Staphylococcus aureus. The following applies: Staphylococcus aureus, LMG15975, 20 h, read-out: Minimal Inhibition Concentration (MIC) S.aureus LMG15975.
Test [1] deals with panel of aerobic and anaerobic Gram-positive bacteria. Briefly: organism not typed. Format: cell-based.
Another test relates to S.aureus LMG8224. The test can be described thus: microbe, parasite or virus in culture. The class given is cell-based, Staphylococcus aureus. Particulars: Staphylococcus aureus, LMG8224, 20 h, read-out: Minimal Inhibition Concentration (MIC) S.aureus LMG8224.
In the next test the test system is S.aureus LMG10147. The test can be described thus: microbe, parasite or virus in culture. Format: cell-based, Staphylococcus aureus. The following applies: Staphylococcus aureus, LMG10147, 20 h, read-out: Minimal Inhibition Concentration (MIC) S.aureus LMG10147.
The subject of another test is C. tetani CECT4629. Briefly: microbe, parasite or virus in culture. Format: cell-based. The following applies: Clostridium tetani, CECT4629, 24 h, read-out: Minimal Inhibition Concentration (MIC) C. tetani CECT4629.
For the next test, the system named is B. cereus ATCC10987. The test can be described thus: microbe, parasite or virus in culture. Particulars: Bacillus cereus, ATCC10987, 20 h, read-out: Minimal Inhibition Concentration (MIC) B. cereus ATCC10987. The class given is cell-based, Bacillus cereus.
Another test concerns C. ihumii AP5. Briefly: MIC test, anaerobes. The class given is cell-based. The procedure: (§1) The resveratrol derivatives were serially diluted in cMHB (BD Difco) in 96-well microplates. Plates were then inoculated with the indicator bacteria at a final concentration of 5 × 10^5 CFU/mL and incubated at 37 °C for 20 h. In the case of the anaerobic bacteria (Clostridium and Clostridioides), the test was performed following the recommendation of CLSI for anaerobes[77] but using RCM medium instead of cMHB. The cultures were cultivated inside an anaerobic chamber at 37 °C for 24 h. All the tests were performed in triplicate.

The test system of the next test is C. beijerinckii B504. The test can be described thus: MIC test, anaerobes. Format: cell-based. As to the method:
as §1

For the next test, the system named is C. botulinum CECT551. The test can be described thus: microbe, parasite or virus in culture. The following applies: Clostridium botulinum, CECT551, 24 h, read-out: Minimal Inhibition Concentration (MIC) C. botulinum CECT551. The class given is cell-based.
A further test deals with B. cereus ATCC14579. Briefly: microbe, parasite or virus in culture. Format: cell-based, Bacillus cereus. Particulars: Bacillus cereus, ATCC14579, 20 h, read-out: Minimal Inhibition Concentration (MIC) B. cereus ATCC14579.
The next test concerns C. difficile CECT531. The test can be described thus: microbe, parasite or virus in culture. Particulars: Clostridioides difficile, CECT531, 24 h, read-out: Minimal Inhibition Concentration (MIC) C. difficile CECT531. Format: cell-based, Clostridioides difficile.
A further test relates to E. faecalis V583. The test can be described thus: microbe, parasite or virus in culture. Format: cell-based, Enterococcus faecalis. Particulars: Enterococcus faecalis, V583, 20 h, read-out: Minimal Inhibition Concentration (MIC) E. faecalis V583.
In a further test the test system is E. faecalis LMG16216. The test can be described thus: microbe, parasite or virus in culture. Format: cell-based, Enterococcus faecalis. The following applies: Enterococcus faecalis, LMG16216, 20 h, read-out: Minimal Inhibition Concentration (MIC) E. faecalis LMG16216.
The next test has as its system E. faecalis LMG08222. The test can be described thus: microbe, parasite or virus in culture. Format: cell-based, Enterococcus faecalis. Particulars: Enterococcus faecalis, LMG08222, 20 h, read-out: Minimal Inhibition Concentration (MIC) E. faecalis LMG08222.
In the next test the test system is E. coli LMG8224. The test can be described thus: Outer membrane permeabilization test (MIC with or without L-11 peptide). Particulars: for MIC: Escherichia coli, LMG8224, read-out: MIC (μM) L-11 + 0 μM; for MIC (μM) L-11 + 4 μM: presence of 4 μM L-11 outer-membrane-perturbing peptide.
Test [2] concerns E. faecium LMG16003. The test can be described thus: microbe, parasite or virus in culture. The class given is cell-based. Particulars: Enterococcus faecium, LMG16003, 20 h, read-out: Minimal Inhibition Concentration (MIC) E. faecium LMG16003.
The test system of the next test is E. faecium LMG11423. Briefly: microbe, parasite or virus in culture. The class given is cell-based. The following applies: Enterococcus faecium, LMG11423, 20 h, read-out: Minimal Inhibition Concentration (MIC) E. faecium LMG11423.
Another test deals with S. aureus LMG8224. Briefly: Combined action with antibiotics (MIC reduction, checkerboard FICI). Format: cell-based, Staphylococcus aureus.
Test [3] deals with E. faecium LMG16003. The description is as above. Format: cell-based.
Where [4] appears, read: 24 h; read-out: Minimal Inhibition Concentration (MIC) C. ihumii AP5.
Where [5] appears, read: Clostridium beijerinckii, B504, 24 h; read-out: Minimal Inhibition Concentration (MIC) C. beijerinckii B504.
The mark [6] stands for this setting: fractional inhibitory concentration index, EUCAST, * means relevant FICI values.

Values after ≈ are worked out from the molar mass of the structure shown. Where two headings read alike, the source gives them in different places. Some results are limits rather than exact numbers.

For the compound `CCCCCCCC(=O)OC[C@H]1O[C@@H](Oc2cc(/C=C/c3ccc(OC)cc3)cc(OC)c2)[C@H](O)[C@@H](O)[C@@H]1O` [compound 28], the MIC in the test with C. perfringens CECT376 is 128 µM (≈ 69.7 µg/mL); with S.aureus LMG15975, 128 µM (≈ 69.7 µg/mL); with S.aureus LMG8224 it was 128 µM (≈ 69.7 µg/mL); in the test with S.aureus LMG10147, 128 µM (≈ 69.7 µg/mL); in the test on C. tetani CECT4629 it was 16 µM (≈ 8.71 µg/mL); in the test on B. cereus ATCC10987, 128 µM (≈ 69.7 µg/mL). Moreover, the MIC was found to be 64 µM (≈ 34.9 µg/mL) in the test on C. ihumii AP5 (setting [4]); 32 µM (≈ 17.4 µg/mL) in the test on C. beijerinckii B504 (setting [5]); 26.6 ± 5.3 µM (≈ 14.5 µg/mL) in the test on C. botulinum CECT551; 128 µM (≈ 69.7 µg/mL) in the test with B. cereus ATCC14579; 85.3 ± 21.3 µM (≈ 46.5 µg/mL) in the test with C. difficile CECT531. Moreover, the “antibacterial activity against the Gram-positive panel” value in test [1] is “weak antibacterial activity”.

In the case of `COc1cc(/C=C/c2ccc(O[C@@H]3O[C@H](C(=O)O)[C@@H](O)[C@H](O)[C@H]3O)cc2)cc(OC)c1` [compound 30, PTER glucuronate], the MIC with C. perfringens CECT376 is 5.3 ± 1.3 µM (≈ 2.29 µg/mL); in the test on S.aureus LMG15975, 32 µM (≈ 13.8 µg/mL); in [1] it was below 16 µM; with E. faecalis V583 it was 128 µM (≈ 55.4 µg/mL); with S.aureus LMG8224, 32 µM (≈ 13.8 µg/mL); in the test with S.aureus LMG10147 it was 32 µM (≈ 13.8 µg/mL). Also, the MIC was 4 µM (≈ 1.73 µg/mL) in the test with C. tetani CECT4629; 16 µM (≈ 6.92 µg/mL) with B. cereus ATCC10987; 8 µM (≈ 3.46 µg/mL) in the test with C. ihumii AP5 (setting [4]); 10.7 ± 2.6 µM (≈ 4.63 µg/mL) with C. beijerinckii B504 (setting [5]); 4 µM (≈ 1.73 µg/mL) in the test on C. botulinum CECT551; 13.3 ± 2.6 µM (≈ 5.75 µg/mL) in the test on B. cereus ATCC14579. In addition, the MIC with E. faecalis LMG16216 was 128 µM (≈ 55.4 µg/mL); in the test on C. difficile CECT531, 13.3 ± 2.6 µM (≈ 5.75 µg/mL); with E. faecalis LMG08222 it was 64 µM (≈ 27.7 µg/mL); in the test on E. coli LMG8224, above 128 µM. Also, in the test on E. coli LMG8224, the “MIC (μM) L-11 + 4 μM” value was determined as 16 ± 0 µM.

As for `CC(C)[Si](Oc1cc(/C=C/c2ccc(OS(=O)(=O)O)cc2)cc(OS(=O)(=O)O)c1)(C(C)C)C(C)C` [compound 35, 3,4′-Disulfate-5-triisopropylsilyl resveratrol], the MIC in the test on E. faecium LMG16003 [2] amounted to 13.3 ± 2.6 µM (≈ 7.24 µg/mL); in the test on C. perfringens CECT376, 64 µM (≈ 34.9 µg/mL); with S.aureus LMG15975, 16 µM (≈ 8.72 µg/mL); in the test with E. faecalis V583, 16 µM (≈ 8.72 µg/mL); in the test on S.aureus LMG8224, 13.3 ± 2.6 µM (≈ 7.24 µg/mL); with S.aureus LMG10147, 21.3 ± 5.3 µM (≈ 11.6 µg/mL). Moreover, the MIC came to 64 µM (≈ 34.9 µg/mL) in the test on C. tetani CECT4629; 16 µM (≈ 8.72 µg/mL) in the test with B. cereus ATCC10987; 64 µM (≈ 34.9 µg/mL) in the test with C. ihumii AP5 (24 h, read-out: Minimal Inhibition Concentration (MIC) C. ihumii AP5); 64 µM (≈ 34.9 µg/mL) with C. beijerinckii B504 (Clostridium beijerinckii, B504, 24 h, read-out: Minimal Inhibition Concentration (MIC) C. beijerinckii B504); 64 µM (≈ 34.9 µg/mL) in the test with C. botulinum CECT551; 21.3 ± 5.3 µM (≈ 11.6 µg/mL) in the test with B. cereus ATCC14579. Also, the MIC with E. faecalis LMG16216 was 8 µM (≈ 4.36 µg/mL); with C. difficile CECT531 it was 32 µM (≈ 17.4 µg/mL); in the test on E. faecium LMG11423, 16 µM (≈ 8.72 µg/mL); in the test on E. faecalis LMG08222 it was 13.3 ± 2.6 µM (≈ 7.24 µg/mL); in the test on E. coli LMG8224 it was above 128 µM. Moreover, the “MIC (μM) L-11 + 4 μM” value in the test on E. coli LMG8224 turned out to be 21.6 ± 5.3 µM.

With `CNC(C)C1CCC(N)C(OC2C(N)CC(N)C(OC3OCC(C)(O)C(NC)C3O)C2O)O1` (stereo not shown) [gentamicin], the MIC was 12.6 ± 1.61 µM (≈ 6 µg/mL) in the test on E. faecium LMG16003 [2]; above 32 µM in the test on C. perfringens CECT376; above 32 µM with E. faecalis V583; 1 ± 0.35 µM (≈ 0.478 µg/mL) with S.aureus LMG8224; 4 µM (≈ 1.91 µg/mL) in the test with B. cereus ATCC10987; above 32 µM in the test on C. difficile CECT531. For the same compound, the “MIC of antibiotic in combination with 15” value in the test with S. aureus LMG8224 (15 at 2 μM) is 0.5 ± 0 µM; in the test on S. aureus LMG8224 (15 at 4 μM) it was 0.1 ± 0 µM; with E. faecium LMG16003 [3] (15 at 4 μM), 13.3 ± 1.8 µM; with E. faecium LMG16003 [3] (15 at 8 μM), 5.3 ± 0.9 µM. Besides, the “MIC of antibiotic in combination with 17” value in the test on S. aureus LMG8224 (17 at 2 μM) was determined as 0.3 ± 0 µM; with S. aureus LMG8224 (17 at 4 μM), 0.1 ± 0 µM; in the test with E. faecium LMG16003 [3] (17 at 2 μM) it was 13.3 ± 1.8 µM; in the test with E. faecium LMG16003 [3] (17 at 4 μM), 6.6 ± 0.9 µM. For the same compound, in the test with S. aureus LMG8224 (RES at 4 μM), the “MIC of antibiotic in combination with RES” value worked out at 1 ± 0 µM. For the same compound, in the test with S. aureus LMG8224 (antibiotic alone), the “MIC of antibiotic alone (Ab)” value is 1 ± 0 µM. In addition, the “FICI, antibiotic with 15” value with S. aureus LMG8224 (setting [6]) was 0.37; in the test on E. faecium LMG16003 [3] (setting [6]) it was 0.41. The “FICI, antibiotic with 17” value in the test with S. aureus LMG8224 (setting [6]) is 0.58; in the test with E. faecium LMG16003 [3] (setting [6]), 0.66.
